According to ChEMBL document CHEMBL1125758, “(Acyloxy)alkyl carbamate prodrugs of norfloxacin” (J Med Chem, 1991):
Converted amounts (≈) assume the structure as drawn.

Experiments:
[1] = Solubility in citrate buffer (0.1 M) at 25 degree centigrade(pH 5); type: physicochemical; conditions: for solubility: citrate buffer, read-out: S
[2] = Solubility in phosphate buffer (0.1 M) at 25 degree centigrade(pH 7.4); type: physicochemical
[3] = Half life in a medium of dog serum.; type: ADME, organism-based, Canis lupus familiaris
[4] = Half life in a medium of rat serum.; type: ADME, organism-based
[5] = Solubility in bicarbonate buffer (0.05 M) at 25 degree centigrade(pH 8.5); type: physicochemical; conditions: read-out: S
[6] = Solubility in water at 25 degree Centigrade; type: physicochemical; conditions: read-out: S
[7] = Half life in a medium of human serum.; type: ADME, organism-based
[8] = Half life in a medium of rat intestinal homogenate.; type: ADME
Enterobacter cloacae [9] = test: Antibacterial activity against Ent. cloacae 99+(2646); type: functional; conditions: P99
Enterobacter cloacae [10] = test: Antibacterial activity against Ent. cloacae P99-(2647); type: functional
Klebsiella aerogenes [11] = test: Antibacterial activity against Ent. aerogenes(2828); type: functional
Escherichia coli [12] = test: Antibacterial activity against Escherichia coli (2891); type: functional
Escherichia coli [13] = test: Antibacterial activity against Escherichia coli DC2(4353); type: functional
Escherichia coli [14] = test: Antibacterial activity against Escherichia coli TEM 2+ DC2(4352); type: functional
Escherichia coli [15] = test: Antibacterial activity against Escherichia coli TEM 2+(4351); type: functional
Klebsiella pneumoniae [16] = test: Antibacterial activity against Klebsiella pneumoniae (4005); type: functional
Klebsiella pneumoniae [17] = test: Antibacterial activity against Klebsiella pneumoniae K1+(4354); type: functional
Rhesus monkey [18] = test: (§1) Serum conc at 3 hours following 25 mg/kg dose; type: functional, Macaca mulatta
Rhesus monkey [19] = test: (§2) Urine conc 0-5 hours following 25 mg/kg dose; type: functional, Macaca mulatta
Rhesus monkey [20] = test: Urine conc 0-24 hours following 25mg/kg dose; type: functional, Macaca mulatta
Monkey = test: % dose recovered in urine; type: functional, Cercopithecidae
Proteus vulgaris [21] = test: Antibacterial activity against Prot. vulgaris(2829); type: functional
Proteus mirabilis [22] = test: Antibacterial activity against Prot. mirabilis GmR(2830); type: functional
Pseudomonas aeruginosa [23] = test: Antibacterial activity against Ps. aeruginoa(2835); type: functional
Pseudomonas aeruginosa [24] = test: Antibacterial activity against Ps. aeruginoa(4279); type: functional
Pseudomonas aeruginosa [25] = test: Antibacterial activity against Ps. aeruginosa RPL11+(3350); type: functional
Morganella morganii [26] = test: Antibacterial activity against Prot. morganii SmR(2833); type: functional
Salmonella typhimurium = test: Antibacterial activity against Sal. Typhimurium (3860); type: functional, Salmonella enterica subsp. enterica serovar Typhimurium; conditions: Salmonella enterica
Serratia marcescens = test: Antibacterial activity against Ser. marcescens (2840); type: functional
Staphylococcus aureus [27] = test: Antibacterial activity against Staphylococcus aureus (2865); type: functional
Staphylococcus aureus [28] = test: Antibacterial activity against Staphylococcus aureus (2868); type: functional
Staphylococcus aureus [29] = test: Antibacterial activity against Staphylococcus aureus GmR Meth(4310); type: functional
Streptococcus sp. = test: Antibacterial activity against Strep. Faecalis (2864); type: functional
[30] = Half life in a medium of phosphate buffer in pH 7.4; type: ADME
[31] = as §1; type: ADME, organism-based, Macaca mulatta; parameters: dose 25 mg/kg; conditions: rhesus monkey, read-out: Concentration_plasma
[32] = as §2; type: ADME, organism-based, Macaca mulatta; parameters: dose 25 mg/kg; conditions: rhesus monkey, in vivo
[33] = Urine conc 0-24 hours following 25 mg/kg dose; type: ADME, organism-based, Macaca mulatta; parameters: dose 25 mg/kg; conditions: rhesus monkey, in vivo
Klebsiella aerogenes [34] = test: Antibacterial activity against Ent. aerogenes (2828); type: functional
Enterobacter cloacae [35] = test: Antibacterial activity against Ent. cloacae 99+ (2646); type: functional; conditions: P99
Enterobacter cloacae [36] = test: Antibacterial activity against Ent. cloacae P99- (2647); type: functional
Escherichia coli [37] = test: Antibacterial activity against Escherichia coli DC2 (4353); type: functional
Escherichia coli [38] = test: Antibacterial activity against Escherichia coli TEM 2+ (4351); type: functional
Escherichia coli [39] = test: Antibacterial activity against Escherichia coli TEM 2+ DC2 (4352); type: functional
Klebsiella pneumoniae [40] = test: Antibacterial activity against Klebsiella pneumoniae K1+ (4354); type: functional
Proteus vulgaris [41] = test: Antibacterial activity against Prot. vulgaris (2829); type: functional
Morganella morganii [42] = test: Antibacterial activity against Prot. morganii SmR (2833); type: functional
Proteus mirabilis [43] = test: Antibacterial activity against Prot. mirabilis GmR (2830); type: functional
Pseudomonas aeruginosa [44] = test: Antibacterial activity against Ps. aeruginosa (2835); type: functional
Pseudomonas aeruginosa [45] = test: Antibacterial activity against Ps. aeruginosa (4279); type: functional
Pseudomonas aeruginosa [46] = test: Antibacterial activity against Ps. aeruginosa RPL11+ (3350); type: functional
Staphylococcus aureus [47] = test: Antibacterial activity against Staphylococcus aureus GmR Meth (4310); type: functional
Enterococcus faecalis = test: Antibacterial activity against Strep. faecalis (2864); type: functional

CCn1cc(C(=O)O)c(=O)c2cc(F)c(N3CCN(C(=O)OC(C)OC(C)=O)CC3)cc21 (centres undefined)
solubility [1]: 30 µg/mL (≈ 66.8 µM)
solubility [2]: 60 µg/mL (≈ 134 µM)
half-life [3]: 6 min
half-life [4]: 1.5 min
solubility [5]: 150 µg/mL (≈ 334 µM)

CCn1cc(C(=O)O)c(=O)c2cc(F)c(N3CCN(C(=O)OCOC(C)=O)CC3)cc21
solubility [1]: 5 µg/mL (≈ 11.5 µM)
solubility [2]: 50 µg/mL (≈ 115 µM)
solubility [6]: 60 µg/mL (≈ 138 µM)
half-life [3]: 6 min
half-life [7]: 116 min
half-life [8]: 2.6 min
half-life [4]: 1.5 min
MIC (Enterobacter cloacae [9]): > 128 µg/mL
MIC (Enterobacter cloacae [10]): > 128 µg/mL
MIC (Klebsiella aerogenes [11]): > 128 µg/mL
MIC (Escherichia coli [12]): 128 µg/mL (≈ 294 µM)
MIC (Escherichia coli [13]): > 128 µg/mL
MIC (Escherichia coli [14]): > 128 µg/mL
MIC (Escherichia coli [15]): > 128 µg/mL
MIC (Klebsiella pneumoniae [16]): 32 µg/mL (≈ 73.5 µM)
MIC (Klebsiella pneumoniae [17]): > 128 µg/mL
Concentration_plasma (Rhesus monkey [18]): 0.36 µg/mL
Concentration_urine (Rhesus monkey [19]): 25.03 µg/mL
Concentration_urine (Rhesus monkey [20]): 21.97 µg/mL
Dose (Monkey): 7.23%
MIC (Proteus vulgaris [21]): > 128 µg/mL
MIC (Proteus mirabilis [22]): > 128 µg/mL
MIC (Pseudomonas aeruginosa [23]): > 128 µg/mL
MIC (Pseudomonas aeruginosa [24]): > 128 µg/mL
MIC (Pseudomonas aeruginosa [25]): > 128 µg/mL
MIC (Morganella morganii [26]): 8 µg/mL (≈ 18.4 µM)
MIC (Salmonella typhimurium): > 128 µg/mL
MIC (Serratia marcescens): > 128 µg/mL
MIC (Staphylococcus aureus [27]): 2 µg/mL (≈ 4.59 µM)
MIC (Staphylococcus aureus [28]): 1 µg/mL (≈ 2.3 µM)
MIC (Staphylococcus aureus [29]): 2 µg/mL (≈ 4.59 µM)
MIC (Streptococcus sp.): > 128 µg/mL
solubility [5]: 410 µg/mL (≈ 942 µM)
half-life [30]: 128 h

CCn1cc(C(=O)O)c(=O)c2cc(F)c(N3CCNCC3)cc21 [NORFLOXACIN]
concentration at 3 h [31]: 760 ng/mL
Concentration_urine [32]: 175860 ng/mL
Concentration_urine [33]: 33780 ng/mL
S ([1]; buffer): 8 mg/mL
solubility [2]: 200 µg/mL (≈ 626 µM)
solubility [6]: 190 µg/mL (≈ 595 µM)
MIC (Klebsiella aerogenes [34]): 0.5 µg/mL (≈ 1.57 µM)
MIC (Enterobacter cloacae [35]): 1 µg/mL (≈ 3.13 µM)
MIC (Enterobacter cloacae [36]): 0.25 µg/mL (≈ 0.783 µM)
MIC (Escherichia coli [37]): 0.5 µg/mL (≈ 1.57 µM)
MIC (Escherichia coli [38]): 0.03 µg/mL (≈ 0.0939 µM)
MIC (Escherichia coli [38]; Escherichia coli, read-out: MIC): 0.03 µg/mL (≈ 0.0939 µM)
MIC (Escherichia coli [39]): 0.5 µg/mL (≈ 1.57 µM)
MIC (Escherichia coli [12]): 0.06 µg/mL (≈ 0.188 µM)
MIC (Klebsiella pneumoniae [16]): 0.06 µg/mL (≈ 0.188 µM)
MIC (Klebsiella pneumoniae [40]): 8 µg/mL (≈ 25.1 µM)
Dose (Monkey): 16.3%
MIC (Proteus vulgaris [41]): 0.06 µg/mL (≈ 0.188 µM)
MIC (Morganella morganii [42]): 0.06 µg/mL (≈ 0.188 µM)
MIC (Proteus mirabilis [43]): 0.06 µg/mL (≈ 0.188 µM)
MIC (Pseudomonas aeruginosa [44]): 1 µg/mL (≈ 3.13 µM)
MIC (Pseudomonas aeruginosa [45]): 1 µg/mL (≈ 3.13 µM)
MIC (Pseudomonas aeruginosa [46]): 1 µg/mL (≈ 3.13 µM)
MIC (Salmonella typhimurium): 0.5 µg/mL (≈ 1.57 µM)
MIC (Serratia marcescens): 4 µg/mL (≈ 12.5 µM)
MIC (Staphylococcus aureus [47]): 1 µg/mL (≈ 3.13 µM)
MIC (Staphylococcus aureus [27]): 0.25 µg/mL (≈ 0.783 µM)
MIC (Staphylococcus aureus [28]): 1 µg/mL (≈ 3.13 µM)
MIC (Enterococcus faecalis): 8 µg/mL (≈ 25.1 µM)
solubility [5]: 210 µg/mL (≈ 658 µM)
